Calls of active or inactive are those of the source. The rule behind the calls is not given here.
Legend:
[1] = Octanol-phosphate buffer partition coefficient, log P of the compound at 0.37 MBq after 10 mins by gamma counting; type: physicochemical
[2] = tested on: Brain; assay: Biodistribution in mouse brain at 64.5 kBq, iv measured 60 mins post injection by gamma counting; type: ADME, organism-based; settings: in vivo, 1 h
[3] = tested on: Brain; assay: Biodistribution in mouse brain at 64.5 kBq, iv measured 2 mins post injection by gamma counting; type: ADME, organism-based; settings: in vivo
[4] = organism: Homo sapiens; assay: Selectivity ratio Ki for amyloid beta (1 to 42) aggregates to Ki for recombinant human tau
[5] = molecular target: T1, Microtubule-associated protein tau (Homo sapiens, UniProt P10636); assay: Displacement of Thioflavin S from recombinant human tau expressed in Escherichia coli after 30 mins by fluorescence assay
[6] = molecular target: Amyloid-beta precursor protein (Homo sapiens) (UniProt P05067); assay: Binding affinity to amyloid beta (1 to 42) aggregates in human alzheimer's disease patient brain white matter at 92.5 kBq after 2 hrs by immunohistological staining; type: tissue-based; settings: tested as the 18F-labelled form
[7] = organism: Homo sapiens; assay: Binding affinity to senile plaques in human alzheimer's disease patient brain at 92.5 kBq after 30 mins by immunohistological staining
[8] = Binding affinity to amyloid beta (1 to 42) aggregates assessed per nanomolar of protein after 30 mins by fluorescence assay; settings: tested as the 18F-labelled form
[9] = Displacement of Thioflavin S from amyloid beta (1 to 42) aggregates after 30 mins by fluorescence assay
[10] = molecular target: T1, Microtubule-associated protein tau; assay: Binding affinity to tau protein in human alzheimer's disease patient brain white matter at 92.5 kBq after 2 hrs by immunohistological staining; type: tissue-based; settings: tested as the 18F-labelled form
[11] = molecular target: T1, Microtubule-associated protein tau; assay: Binding affinity to recombinant human tau expressed in Escherichia coli assessed per nanomolar of protein after 30 mins by fluorescence assay; settings: tested as the 18F-labelled form
[12] = organism: Homo sapiens; assay: Binding affinity to neurofibrillary tangles in human alzheimer's disease patient brain at 92.5 kBq after 30 mins by immunohistological staining
[13] = tested on: Heart; assay: Biodistribution in mouse heart at 64.5 kBq, iv measured 10 mins post injection by gamma counting; type: ADME, organism-based; settings: in vivo
[14] = tested on: Stomach; assay: Biodistribution in mouse stomach at 64.5 kBq, iv measured 10 mins post injection by gamma counting; type: ADME, organism-based; settings: in vivo
[15] = molecular target: T1, Microtubule-associated protein tau; assay: Binding affinity to recombinant human tau expressed in Escherichia coli after 30 mins by fluorescence assay
[16] = tested on: Brain; assay: Drug uptake in normal human brain at 92.5 kBq after 2 hrs by […]; type: ADME, tissue-based
[17] = tested on: Kidney; assay: Biodistribution in mouse kidney at 64.5 kBq, iv measured 10 mins post injection by gamma counting; type: ADME, organism-based; settings: in vivo
[18] = tested on: Blood; assay: Biodistribution in mouse blood at 64.5 kBq, iv measured 60 mins post injection by gamma counting; type: ADME, organism-based; settings: in vivo, 1 h
[19] = tested on: Brain; assay: Biodistribution in mouse brain at 64.5 kBq, iv measured 30 mins post injection by gamma counting; type: ADME, organism-based; settings: in vivo, 0.5 h
[20] = tested on: Lung; assay: Biodistribution in mouse lung at 64.5 kBq, iv measured 2 mins post injection by gamma counting; type: ADME, organism-based; settings: in vivo
[21] = tested on: Intestine; assay: Biodistribution in mouse intestine at 64.5 kBq, iv measured 30 mins post injection by gamma counting; type: ADME, organism-based; settings: in vivo, 0.5 h
[22] = tested on: Heart; assay: Biodistribution in mouse heart at 64.5 kBq, iv measured 30 mins post injection by gamma counting; type: ADME, organism-based; settings: in vivo, 0.5 h
[23] = tested on: Heart; assay: Biodistribution in mouse heart at 64.5 kBq, iv measured 60 mins post injection by gamma counting; type: ADME, organism-based; settings: in vivo, 1 h
[24] = tested on: Pancreas; assay: Biodistribution in mouse pancreas at 64.5 kBq, iv measured 10 mins post injection by gamma counting; type: ADME, organism-based; settings: in vivo
[25] = tested on: Spleen; assay: Biodistribution in mouse spleen at 64.5 kBq, iv measured 10 mins post injection by gamma counting; type: ADME, organism-based; settings: in vivo
[26] = tested on: Liver; assay: Biodistribution in mouse liver at 64.5 kBq, iv measured 2 mins post injection by gamma counting; type: ADME, organism-based; settings: in vivo
[27] = tested on: Bone; assay: Biodistribution in mouse bone at 64.5 kBq, iv measured 30 mins post injection by gamma counting; type: ADME, organism-based, Bone element; settings: in vivo, 0.5 h
[28] = tested on: Bone; assay: Biodistribution in mouse bone at 64.5 kBq, iv measured 60 mins post injection by gamma counting; type: ADME, organism-based, Bone element; settings: in vivo, 1 h
[29] = tested on: Liver; assay: Biodistribution in mouse liver at 64.5 kBq, iv measured 10 mins post injection by gamma counting; type: ADME, organism-based; settings: in vivo
[30] = tested on: Stomach; assay: Biodistribution in mouse stomach at 64.5 kBq, iv measured 60 mins post injection by gamma counting; type: ADME, organism-based; settings: in vivo, 1 h
[31] = tested on: Liver; assay: Biodistribution in mouse liver at 64.5 kBq, iv measured 30 mins post injection by gamma counting; type: ADME, organism-based; settings: in vivo, 0.5 h
[32] = tested on: Spleen; assay: Biodistribution in mouse spleen at 64.5 kBq, iv measured 2 mins post injection by gamma counting; type: ADME, organism-based; settings: in vivo
[33] = tested on: Lung; assay: Biodistribution in mouse lung at 64.5 kBq, iv measured 30 mins post injection by gamma counting; type: ADME, organism-based; settings: in vivo, 0.5 h
[34] = tested on: Pancreas; assay: Biodistribution in mouse pancreas at 64.5 kBq, iv measured 60 mins post injection by gamma counting; type: ADME, organism-based; settings: in vivo, 1 h
[35] = tested on: Intestine; assay: Biodistribution in mouse intestine at 64.5 kBq, iv measured 10 mins post injection by gamma counting; type: ADME, organism-based; settings: in vivo
[36] = tested on: Blood; assay: Biodistribution in mouse blood at 64.5 kBq, iv measured 2 mins post injection by gamma counting; type: ADME, organism-based; settings: in vivo
[37] = tested on: Kidney; assay: Biodistribution in mouse kidney at 64.5 kBq, iv measured 2 mins post injection by gamma counting; type: ADME, organism-based; settings: in vivo
[38] = tested on: Lung; assay: Biodistribution in mouse lung at 64.5 kBq, iv measured 60 mins post injection by gamma counting; type: ADME, organism-based; settings: in vivo, 1 h
[39] = Binding affinity to amyloid beta (1 to 42) aggregates after 30 mins by fluorescence assay
[40] = tested on: Bone; assay: Biodistribution in mouse bone at 64.5 kBq, iv measured 10 mins post injection by gamma counting; type: ADME, organism-based, Bone element; settings: in vivo
[41] = tested on: Stomach; assay: Biodistribution in mouse stomach at 64.5 kBq, iv measured 2 mins post injection by gamma counting; type: ADME, organism-based; settings: in vivo
[42] = tested on: Spleen; assay: Biodistribution in mouse spleen at 64.5 kBq, iv measured 30 mins post injection by gamma counting; type: ADME, organism-based; settings: in vivo, 0.5 h
[43] = tested on: Pancreas; assay: Biodistribution in mouse pancreas at 64.5 kBq, iv measured 30 mins post injection by gamma counting; type: ADME, organism-based; settings: in vivo, 0.5 h
[44] = tested on: Pancreas; assay: Biodistribution in mouse pancreas at 64.5 kBq, iv measured 2 mins post injection by gamma counting; type: ADME, organism-based; settings: in vivo
[45] = tested on: Spleen; assay: Biodistribution in mouse spleen at 64.5 kBq, iv measured 60 mins post injection by gamma counting; type: ADME, organism-based; settings: in vivo, 1 h
[46] = tested on: Kidney; assay: Biodistribution in mouse kidney at 64.5 kBq, iv measured 60 mins post injection by gamma counting; type: ADME, organism-based; settings: in vivo, 1 h
[47] = tested on: Intestine; assay: Biodistribution in mouse intestine at 64.5 kBq, iv measured 2 mins post injection by gamma counting; type: ADME, organism-based; settings: in vivo
[48] = tested on: Stomach; assay: Biodistribution in mouse stomach at 64.5 kBq, iv measured 30 mins post injection by gamma counting; type: ADME, organism-based; settings: in vivo, 0.5 h
[49] = tested on: Liver; assay: Biodistribution in mouse liver at 64.5 kBq, iv measured 60 mins post injection by gamma counting; type: ADME, organism-based; settings: in vivo, 1 h
[50] = tested on: Blood; assay: Biodistribution in mouse blood at 64.5 kBq, iv measured 30 mins post injection by gamma counting; type: ADME, organism-based; settings: in vivo, 0.5 h
[51] = tested on: Heart; assay: Biodistribution in mouse heart at 64.5 kBq, iv measured 2 mins post injection by gamma counting; type: ADME, organism-based; settings: in vivo
[52] = tested on: Intestine; assay: Biodistribution in mouse intestine at 64.5 kBq, iv measured 60 mins post injection by gamma counting; type: ADME, organism-based; settings: in vivo, 1 h
[53] = tested on: Bone; assay: Biodistribution in mouse bone at 64.5 kBq, iv measured 2 mins post injection by gamma counting; type: ADME, organism-based, Bone element; settings: in vivo
[54] = tested on: Kidney; assay: Biodistribution in mouse kidney at 64.5 kBq, iv measured 30 mins post injection by gamma counting; type: ADME, organism-based; settings: in vivo, 0.5 h
[55] = tested on: Lung; assay: Biodistribution in mouse lung at 64.5 kBq, iv measured 10 mins post injection by gamma counting; type: ADME, organism-based; settings: in vivo
[56] = tested on: Brain; assay: Biodistribution in mouse brain at 64.5 kBq, iv measured 10 mins post injection by gamma counting; type: ADME, organism-based; settings: in vivo
[57] = tested on: Blood; assay: Biodistribution in mouse blood at 64.5 kBq, iv measured 10 mins post injection by gamma counting; type: ADME, organism-based; settings: in vivo

T1 sequence (P10636 whole entry): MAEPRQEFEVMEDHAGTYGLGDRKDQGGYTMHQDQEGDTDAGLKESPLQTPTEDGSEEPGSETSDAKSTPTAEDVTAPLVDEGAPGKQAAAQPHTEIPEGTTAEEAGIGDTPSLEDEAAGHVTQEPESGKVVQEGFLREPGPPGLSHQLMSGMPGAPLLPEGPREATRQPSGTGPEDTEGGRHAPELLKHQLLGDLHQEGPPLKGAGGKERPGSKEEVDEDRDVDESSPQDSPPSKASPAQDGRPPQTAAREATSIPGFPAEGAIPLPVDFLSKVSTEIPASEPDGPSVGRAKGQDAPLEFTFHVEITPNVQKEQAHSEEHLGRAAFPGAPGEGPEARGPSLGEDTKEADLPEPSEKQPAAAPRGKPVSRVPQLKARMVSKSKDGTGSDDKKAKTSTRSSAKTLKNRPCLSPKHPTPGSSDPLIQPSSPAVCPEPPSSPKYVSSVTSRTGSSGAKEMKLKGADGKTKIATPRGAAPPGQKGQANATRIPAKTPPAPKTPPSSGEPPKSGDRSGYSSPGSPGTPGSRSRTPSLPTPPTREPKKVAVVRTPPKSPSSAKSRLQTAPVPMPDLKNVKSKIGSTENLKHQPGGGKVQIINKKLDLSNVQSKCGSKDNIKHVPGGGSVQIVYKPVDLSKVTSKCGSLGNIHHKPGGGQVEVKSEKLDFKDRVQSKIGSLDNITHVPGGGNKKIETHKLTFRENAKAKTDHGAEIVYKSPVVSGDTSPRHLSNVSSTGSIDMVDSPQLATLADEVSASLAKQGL
Chain of Amyloid-beta precursor protein (Homo sapiens) (P05067 whole entry): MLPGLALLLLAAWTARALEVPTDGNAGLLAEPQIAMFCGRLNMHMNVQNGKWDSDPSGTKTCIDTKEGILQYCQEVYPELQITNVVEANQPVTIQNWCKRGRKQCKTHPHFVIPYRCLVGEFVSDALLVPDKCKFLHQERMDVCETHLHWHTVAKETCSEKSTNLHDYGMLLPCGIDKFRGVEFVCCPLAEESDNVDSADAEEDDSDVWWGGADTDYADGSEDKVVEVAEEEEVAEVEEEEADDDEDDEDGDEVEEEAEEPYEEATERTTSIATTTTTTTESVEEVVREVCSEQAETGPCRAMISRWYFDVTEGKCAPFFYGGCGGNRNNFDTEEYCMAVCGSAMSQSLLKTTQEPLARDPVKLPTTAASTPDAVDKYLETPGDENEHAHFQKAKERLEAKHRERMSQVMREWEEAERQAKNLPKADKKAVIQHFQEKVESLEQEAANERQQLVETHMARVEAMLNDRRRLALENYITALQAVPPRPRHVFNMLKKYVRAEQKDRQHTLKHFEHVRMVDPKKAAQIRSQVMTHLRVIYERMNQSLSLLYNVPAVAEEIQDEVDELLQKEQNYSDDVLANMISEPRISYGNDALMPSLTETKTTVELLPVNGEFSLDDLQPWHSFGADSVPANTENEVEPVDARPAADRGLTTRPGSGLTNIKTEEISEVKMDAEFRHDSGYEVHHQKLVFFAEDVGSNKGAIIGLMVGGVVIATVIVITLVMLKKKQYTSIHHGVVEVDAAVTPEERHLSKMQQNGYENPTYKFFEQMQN

CN(C)c1ccc(/N=N/c2nc3ccc([125I])cc3s2)cc1
logP at 10 min [1]: 3.84
Drug uptake [2]: 2.89 % ID/g
Drug uptake [3]: 0.94 % ID/g

CN(C)c1ccc(/N=N/c2nc3ccc(I)cc3s2)cc1
Ratio Ki [4]: 17.2
Ki [5]: 0.48 nM

CN(C)c1ccc(/N=N/c2nc3ccc(OCCOCCOCCF)cc3s2)cc1
Activity [6]: Active
Activity [7]: Active
Bmax [8]: 38.9 pmol
IC50 [9]: 47.3 nM
Ki [9]: 20 nM
Ratio Ki [4]: 1.54
Activity [10]: Active
Bmax [11]: 45.8 pmol
IC50 [5]: 256 nM
Ki [5]: 13 nM
Activity [12]: Active

CN(C)c1ccc(/N=N/c2nc3ccc(OCCOCCOCC[18F])cc3s2)cc1
Drug uptake [13]: 4.14 % ID/g
Drug uptake [14]: 1.42 %ID
Kd [15]: 44.8 nM
Drug uptake [16]: Not Active
Drug uptake [17]: 7.67 % ID/g
Drug uptake [18]: 2.68 % ID/g
Drug uptake [19]: 3.47 % ID/g
Drug uptake [20]: 13.5 % ID/g
Drug uptake [21]: 14.4 % ID/g
Drug uptake [22]: 3.05 % ID/g
Drug uptake [23]: 2.62 % ID/g
Drug uptake [24]: 4.01 % ID/g
logP at 10 min [1]: 2.05
Drug uptake [25]: 3.41 % ID/g
Drug uptake [26]: 20.2 % ID/g
Drug uptake [27]: 1.82 % ID/g
Drug uptake [28]: 1.92 % ID/g
Drug uptake [29]: 19.3 % ID/g
Drug uptake [30]: 3.37 %ID
Drug uptake [31]: 13.1 % ID/g
Drug uptake [32]: 3.47 % ID/g
Drug uptake [33]: 3.36 % ID/g
Drug uptake [34]: 2.18 % ID/g
Drug uptake [35]: 4.99 % ID/g
Drug uptake [36]: 3.04 % ID/g
Drug uptake [2]: 2.53 % ID/g
Drug uptake [37]: 13.9 % ID/g
Drug uptake [38]: 3.59 % ID/g
Kd [39]: 45.4 nM
Drug uptake [40]: 1.82 % ID/g
Drug uptake [41]: 1.11 %ID
Drug uptake [42]: 2.71 % ID/g
Drug uptake [3]: 4.28 % ID/g
Drug uptake [43]: 2.87 % ID/g
Drug uptake [44]: 5.41 % ID/g
Drug uptake [45]: 2.14 % ID/g
Drug uptake [46]: 4 % ID/g
Drug uptake [47]: 2.94 % ID/g
Drug uptake [48]: 2.69 %ID
Drug uptake [49]: 9.32 % ID/g
Drug uptake [50]: 2.19 % ID/g
Drug uptake [51]: 7.45 % ID/g
Drug uptake [52]: 22.9 % ID/g
Drug uptake [53]: 1.88 % ID/g
Drug uptake [54]: 5.08 % ID/g
Drug uptake [55]: 4.37 % ID/g
Drug uptake [56]: 4.26 % ID/g
Drug uptake [57]: 1.83 % ID/g

Source: ChEMBL document CHEMBL2034855, “(18)F-labeled phenyldiazenyl benzothiazole for in vivo imaging of neurofibrillary tangles in Alzheimer's disease brains” (ACS Med Chem Lett, 2012)
